According to paper PMC8333062, “Chemical tools for epichaperome-mediated interactome dysfunctions of the central nervous system” (Nature Communications, 2021):
pEC50, pIC50: −log10 of the molar value. Several values for one entry are separate records, joined by “and”; a condition that tells them apart may be missing. Equal values may be shown once.

What was measured:
intracranial MDA-MB-468 = experiment: Survival studies in mice; type: in vivo, mouse; details: 50 mg kg^−1 iv, three times per week, n=7
[1] = Metabolic stability in liver microsomes; type: in vitro ADME, human; details: No inhibitor
Description: All samples were assayed in duplicate.
To identify cytochrome P450 enzymes responsible for PU-HZ151’s metabolism in human liver microsomes the following procedure was followed. Phosphate buffer (100 mM, pH 7.4) was prepared monthly and stored at 4 °C. Frozen stock solutions of human liver microsomes (Life Technologies; Cat# HMMCPL) were used once after thawing and were not refrozen. NADPH stock solution (50 mM) in distilled water was prepared fresh daily. Stock solutions of PU-HZ151 (1 mM in DMSO) and CYP inhibitors, furafylline (10 mM) for CYP1A2, tranylcypromine (2 mM) for CYP2A6, ketoconazole (1 mM) for CYP3A, troleandomycin (20 mM) for CYP3A4, orphenadrine (50 mM) for CYP2B6, montelukast (3 mM) for CYP2C8, sulfaphenazole (10 mM) for CYP2C9, benzylnirvanol (1 mM) for CYP2C19, quinidine (1 mM) for CYP2D6, and 1-aminobenzotriazole (1 mM) for all the P450 enzymes were stored at −20 °C. The stock solutions of these P450 inhibitors were prepared in DMSO. General procedure: PU-HZ151 (1 µM) was incubated with human liver microsomes (0.5 mg protein mL^−1), 2.5 mM NADPH, 3.3 mM magnesium chloride, and chemical inhibitors (various concentrations) in phosphate buffer (100 mM, pH 7.4) at 37 °C for up to 60 min. […] The concentration of the chemical inhibitors used in the assay were furafylline (10 μM), tranylcypromine (2 μM), ketoconazole (1 μM), troleandomycin (20 μM), orphenadrine (50 μM), montelukast (3 μM), sulfaphenazole (10 μM), benzylnirvanol (1 μM), quinidine (1 μM), and 1-aminobenzotriazole (1 mM) for all the P450 enzymes. Timing of the reactions was started following the addition of NADPH/magnesium chloride mix and PU-HZ151. Time-dependent chemical inhibitors (furafylline, troleandomycin, orphenadrine, and 1-aminobenzotriazole) were preincubated with human microsomes in the presence of NADPH and magnesium chloride for 15 min before the addition of PU-HZ151 and timing of reactions was started after addition of PU-HZ151. […]

[2] = LC-MS/MS profile of brain and tumor extracts; details: 1 h post-intravenous injection
MDA-MB-468 cells = experiment: Cell viability, ATP levels 72 h; type: cell-based, human; design: key to Cell viability (ATP levels): ATP levels as % of vehicle (DMSO) control; details: replicates; for Cell viability (ATP levels): MDA-MB-468
Description: Supplementary Fig. 15: PU-HZ151 activity in cells is unaffected by Pgp overexpression. a Two Pgp-positive cells lines, Kasumi-1 and HepG2, were tested for epichaperome-positivity. β-Actin, loading control. b ATP levels in cell treated for 72 h with 0 to 1 µM PU-HZ151. Data are presented as means ±s.e.m. of three experimental repeats. Control, vehicle (DMSO) treated cells. c Western blot analysis of aberrant signaling pathway inhibition by […]
(also on this page, place not known: MDA‐MB-468ASPC1Kasumi Hep G2 ATP levels %Control MDA‐MB-468ASPC1Kasumi 1Hep G2 β-Actin HSP90α Native-PAGE SDS PAGE 100- β-Actin 1)

CYP2C19 = target: T1, CYP2C19 (Homo sapiens, UniProt P33261); experiment: Cytochrome P450 profiling, benzylnirvanol; type: in vitro ADME; details: for % PU-HZ151 remaining: Benzylnirvanol
T1 construct: PU-HZ151 (1 µM) was incubated with human liver microsomes (0.5 mg protein mL^−1); tissue Life Technologies HMMCPL; host or cells: human liver microsomes
T1 sequence (P33261 whole entry): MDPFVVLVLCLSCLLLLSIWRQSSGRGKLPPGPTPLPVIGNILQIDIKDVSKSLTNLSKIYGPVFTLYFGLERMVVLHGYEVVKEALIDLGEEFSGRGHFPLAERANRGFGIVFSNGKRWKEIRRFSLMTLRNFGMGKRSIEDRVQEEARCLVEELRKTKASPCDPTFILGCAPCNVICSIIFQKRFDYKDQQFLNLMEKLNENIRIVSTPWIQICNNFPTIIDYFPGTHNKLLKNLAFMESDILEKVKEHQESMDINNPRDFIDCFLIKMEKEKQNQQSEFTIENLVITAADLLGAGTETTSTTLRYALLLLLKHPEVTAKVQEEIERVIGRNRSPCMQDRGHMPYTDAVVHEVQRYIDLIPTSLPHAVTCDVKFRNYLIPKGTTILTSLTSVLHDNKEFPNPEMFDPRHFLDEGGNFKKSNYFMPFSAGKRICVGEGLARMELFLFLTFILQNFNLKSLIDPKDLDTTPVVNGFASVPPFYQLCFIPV
Description: To identify cytochrome P450 enzymes responsible for PU-HZ151’s metabolism in human liver microsomes the following procedure was followed. Phosphate buffer (100 mM, pH 7.4) was prepared monthly and stored at 4 °C. Frozen stock solutions of human liver microsomes (Life Technologies; Cat# HMMCPL) were used once after thawing and were not refrozen. NADPH stock solution (50 mM) in distilled water was prepared fresh daily. […] The stock solutions of these P450 inhibitors were prepared in DMSO. […] The concentration of the chemical inhibitors used in the assay were furafylline (10 μM), tranylcypromine (2 μM), ketoconazole (1 μM), troleandomycin (20 μM), orphenadrine (50 μM), montelukast (3 μM), sulfaphenazole (10 μM), benzylnirvanol (1 μM), quinidine (1 μM), and 1-aminobenzotriazole (1 mM) for all the P450 enzymes. Timing of the reactions was started following the addition of NADPH/magnesium chloride mix and PU-HZ151. Time-dependent chemical inhibitors (furafylline, troleandomycin, orphenadrine, and 1-aminobenzotriazole) were preincubated with human microsomes in the presence of NADPH and magnesium chloride for 15 min before the addition of PU-HZ151 and timing of reactions was started after addition of PU-HZ151. […] Following brief vortexing and centrifugation, a 200 µL aliquot of the supernatant was transferred to a tube, and 10 µL of haloperidol (1 µg mL^−1) as internal standard was added. Following brief vortexing and centrifugation, 50 µL of supernatant was added to a 96-well plate for subsequent LC-MS/MS analysis. PU-HZ151 was similarly tested as above in the absence of CYP inhibitors for comparative purposes. All samples were assayed in duplicate. […] This was similarly performed for incubations of PU-HZ151 performed in the absence of CYP inhibitor.

HER2 in SKBR3 cells = experiment: HER2 degradation; type: cell-based, human
[3] = target: HSP90 pools in JNPL3 (AD transgenic) mouse brain lysate; experiment: Fluorescence polarization (FP) competitive binding, cy3B-GM; details: read-out: FP relative affinity

## CC(C)(C)CNCCn1c(Sc2cc3c(cc2I)OCO3)nc2c(N)ncnc21 [Compound 85]
Intracranial MDA-MB-468
  survival vs vehicle, log-rank P: 0.0001
[1]; 15 min
  % PU-HZ151 remaining: 52.7%
[1]; 30 min
  % PU-HZ151 remaining: 34.7%
[1]; 60 min
  % PU-HZ151 remaining: 17.2%
[2]
  species detected in lesions and brain: only the intact PU-HZ151 molecule
MDA-MB-468 cells; Homo sapiens, MDA-MB-468, MDA-MB-468, 1.95312 nM
  viability at 0.00195312 µM: 97.8%
MDA-MB-468 cells; Homo sapiens, MDA-MB-468, MDA-MB-468, 3.90625 nM
  viability at 0.00390625 µM: 107%
MDA-MB-468 cells; Homo sapiens, MDA-MB-468, MDA-MB-468, 15.625 nM
  viability at 0.015625 µM: 107%
MDA-MB-468 cells; Homo sapiens, MDA-MB-468, MDA-MB-468, 31.25 nM
  viability at 0.03125 µM: 34.4%
MDA-MB-468 cells; Homo sapiens, MDA-MB-468, MDA-MB-468, 125 nM
  viability at 0.125 µM: 7.51%
MDA-MB-468 cells; Homo sapiens, MDA-MB-468, MDA-MB-468, 500 nM
  viability at 0.5 µM: 13.5%
MDA-MB-468 cells; 1.95312 nM, listed as PU-HZ151, 0.00195312 µM
  Cell viability (ATP levels): 110.592 and 103.375
MDA-MB-468 cells; 3.90625 nM, listed as PU-HZ151, 0.00390625 µM
  Cell viability (ATP levels): 119.425 and 107.367
MDA-MB-468 cells; 7.8125 nM, listed as PU-HZ151, 0.0078125 µM
  Cell viability (ATP levels): 108.225 and 84.5333 and 99.0667
MDA-MB-468 cells; 15.625 nM, listed as PU-HZ151, 0.015625 µM
  Cell viability (ATP levels): 116.083 and 108.992
MDA-MB-468 cells; 31.25 nM, listed as PU-HZ151, 0.03125 µM
  Cell viability (ATP levels): 42.5333 and 26.2083
MDA-MB-468 cells; 62.5 nM, listed as PU-HZ151, 0.0625 µM
  Cell viability (ATP levels): 4.317 and 13.7833 and 10.55
MDA-MB-468 cells; 125 nM, listed as PU-HZ151, 0.125 µM
  Cell viability (ATP levels): 8.242 and 5.217
MDA-MB-468 cells; 500 nM, listed as PU-HZ151, 0.5 µM
  Cell viability (ATP levels): 14.6417 and 13.2667
MDA-MB-468 cells; 1000 nM, listed as PU-HZ151, 1 µM
  Cell viability (ATP levels): 13.625 and 13.2667 and 6.525
CYP2C19; 15 min
  % PU-HZ151 remaining: 59.2%
CYP2C19; 30 min
  % PU-HZ151 remaining: 39.3%
CYP2C19; 60 min
  % PU-HZ151 remaining: 20.2%
CYP2C19; benzylnirvanol
  inhibition of PU-HZ151 metabolism: 4%
HER2 in SKBR3 cells
  pIC50: 8.09
[3]
  pEC50: 8.30
